The record followed here is patent publication US10011571B2, “Preparation method for aromatic heterocyclic compound used as selective JAK3 and/or JAK1 kinase inhibitor and application of aromatic heterocyclic compound” (SHENZHEN CHIPSCREEN BIOSCIENCES, LTD., priority 2014, dated 2018).

Usually IC50 stands for the concentration at which inhibition is half-maximal. High values mean a need for much substance, low ones inhibition by little substance.

In data set [1] the test system is collagen-induced arthritis (CIA) model of rats. Nature of the data set: Collagen-induced arthritis (CIA) model of rats. Type of data set: in vivo. The conditions noted are these: rat CIA; for swelling degree induced by arthritis in the rats, compared to the solvent group: 40 mg/kg i.g.; for Inhibitory rate for arthritis score % / Inhibitory rate for paw volume % / Inhibitory rate for toe thickness % / Body weight growth rate %: 14 days after administration, Examples 40 mg/kg i.g. twice/day, MTX 5 mg/kg i.p. twice a week; for Body weight growth rate %: solvent = 100.0; for toxicity to the rats judged from body weight: compared to the solvent group. Here is the method: Objective: in this test, arthritis is induced by chicken collagen in Wistar rats. After in vivo administration of the compounds of Example 7 and Example 22, the change of the disease index for arthritis in rats is evaluated to determine the therapeutic effect of the test compounds on rat arthritis.
Experimental animals: 36 female Wistar rats were purchased from the animal experiment center, Sun Yat-Sen University (Guangzhou) with the body weight ranging from 180 to 200 g at the beginning of experiment. Four groups (8 rats in each group) were used as the arthritis model, and another group (4 rats) was used as normal control.
Materials: chicken type II collagen and Freund's complete adjuvant were purchased from Beijing Biolead Science and Technology Development Co., Ltd. Positive control: methotrexat (MTX).
Preparation method: the test compounds were prepared by adding them to freshly prepared 0.2% CMC-Na+0.1% Tween-80 solution in sterile water to a desired concentration and thoroughly mixing through ultrasound.
CIA model: the chicken collagen was fully emulsified in equal volume of freud's complete adjuvant, and subcutaneously injected at the tail root of the rat on day 0 for sensitization (250 μL/rat). Another injection was performed at the tail root on day 7 for supplementary immunization (100 μL/rat). After arthritis occurred (on about day 13), the rats were randomly divided into 4 groups with 8 rats in each group. Administration started on day 14 after the first immunization, and lasted for 14 days. The limbs of a rat were visually inspected, and the severity of arthritis was scored in a range from […]: 0=normal; 1=a slight symptom, with signs, such as red and swollen ankle or wrist; 2=moderate red and swollen ankle or wrist; 3=severe red and swollen paw, including toes; 4=severe swollen joint accompanied with dysfunction; the highest score for each rat was 16. The thickness of toes of posterior limbs and the paw volume were measured at the same time.
Medication: the rats were i.g. administered with the compound of Example 7 at a concentration of 40 mg/kg twice/day; or the rats were i.g. administered with the compound of Example 22 at a concentration of 40 mg/kg twice/day. For the positive control, 5 mg/kg MTX was intraperitoneally injected twice a week. The i.g. administration of solvent was used as the negative control. The data obtained 14 days after administration and before administration were compared.

Another data set deals with TYK2 (Homo sapiens (Human), UniProt P29597). Nature of the data set: Eurofins IC50Profiler radiometric kinase assay, TYK2. The conditions noted are these: 9 semilog concentrations. Type of data set: biochemical. The source says: A proportion of the compounds of the present invention are subjected to kinase profile screening (KinaseProfiler™)) and enzymatic inhibitory activity (IC50Profiler™)) assay by entrusting Eurofins company (http://www.eurofins.com). Besides the kinases in the JAK family, the kinases that have been screened for their activity also include most Group 3F and Group 4 kinases (ITK, BLK, TBK1, VEGFRs, ERBBs, etc.), and blood system related kinases (Zhang J. et al. 2009, Nat. Rev. Cancer., 9: 28-39). The concentration of the test compound for kinase profile screening is 1 μM, and a gradient of 9 semilog concentration gradients are used to determine IC50. Detection is carried out according to standard procedure of Eurofins Company. Briefly, according to the requirements of different kinase reactions, 0.2 μL test compound (50 μM, dissolved in dimethyl sulfoxide (DMSO)) is added to reaction buffer containing specific kinase (the buffer system containing 20 mM MOPS, 1 mM EDTA, 0.01% Brij-35, 5% Glycerol, 0.1% β-mercaptoethanol, 1 mg/mL BSA, or 50 mM TRIS, 0.1 mM EGTA, 0.1 mM Na3VO4, 0.1% β-mercaptoethanol, 1 mg/mL BSA, based on the type of kinase used). […] After drying, radio-activity is detected. […]
Chain of TYK2 (P29597 whole entry, species assumed): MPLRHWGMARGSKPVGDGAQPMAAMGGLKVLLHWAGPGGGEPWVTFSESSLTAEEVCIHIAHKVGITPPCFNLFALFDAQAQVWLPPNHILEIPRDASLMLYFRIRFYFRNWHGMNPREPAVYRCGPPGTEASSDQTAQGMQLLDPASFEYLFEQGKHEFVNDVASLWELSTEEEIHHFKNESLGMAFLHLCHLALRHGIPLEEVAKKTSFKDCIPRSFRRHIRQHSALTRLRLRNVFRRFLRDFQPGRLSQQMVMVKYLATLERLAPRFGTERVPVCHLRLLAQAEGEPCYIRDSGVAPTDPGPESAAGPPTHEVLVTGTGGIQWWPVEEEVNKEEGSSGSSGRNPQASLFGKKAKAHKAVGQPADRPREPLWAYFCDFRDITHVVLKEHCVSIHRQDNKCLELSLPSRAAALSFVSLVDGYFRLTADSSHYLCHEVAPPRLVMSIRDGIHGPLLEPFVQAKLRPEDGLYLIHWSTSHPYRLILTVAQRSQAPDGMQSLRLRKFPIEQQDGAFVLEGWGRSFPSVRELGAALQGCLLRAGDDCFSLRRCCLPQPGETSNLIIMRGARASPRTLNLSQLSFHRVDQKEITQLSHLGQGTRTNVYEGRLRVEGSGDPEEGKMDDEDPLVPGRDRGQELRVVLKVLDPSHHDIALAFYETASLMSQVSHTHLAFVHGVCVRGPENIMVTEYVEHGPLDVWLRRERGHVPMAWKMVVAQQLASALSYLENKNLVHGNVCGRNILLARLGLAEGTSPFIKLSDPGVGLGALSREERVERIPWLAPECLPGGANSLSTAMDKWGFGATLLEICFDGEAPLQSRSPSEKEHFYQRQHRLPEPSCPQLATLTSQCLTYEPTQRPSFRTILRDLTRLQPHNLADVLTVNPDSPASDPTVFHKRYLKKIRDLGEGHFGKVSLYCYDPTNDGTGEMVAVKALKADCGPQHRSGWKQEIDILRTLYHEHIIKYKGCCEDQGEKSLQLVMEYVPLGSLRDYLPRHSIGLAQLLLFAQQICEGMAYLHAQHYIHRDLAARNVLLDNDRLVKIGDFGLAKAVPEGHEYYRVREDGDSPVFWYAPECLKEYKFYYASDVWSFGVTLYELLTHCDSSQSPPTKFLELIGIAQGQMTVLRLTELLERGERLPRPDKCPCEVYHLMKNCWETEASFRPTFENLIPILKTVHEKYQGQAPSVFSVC

Consider `C=CC(=O)N(C)c1cc(Nc2ncc(Cl)c(NCCCNC(=O)c3ccc(C#N)cc3)n2)ccc1F` [Example 7, N-(3-(5-chloro-2-(4-fluoro-3-(N-methylacrylamido)phenylamino)pyrimidinyl-4-amino)propyl)-4-cyano-benzamide], for which, in data set [1], the “swelling degree induced by arthritis in the rats, compared to the solvent group” value is listed as “significantly inhibited”; the “Inhibitory rate for arthritis score %” value is given as 75.0%; the “Inhibitory rate for paw volume %” value was determined as 63.6%; the “Inhibitory rate for toe thickness %” value is listed as 74.3%. In data set [1], the “Body weight growth rate %” value is recorded as 102.2% and the “toxicity to the rats judged from body weight” value is given as “no significant toxicity”. The same molecule came in with a half-maximal inhibitory concentration (IC50) against TYK2 of over 10 µM.
For the molecule `C=CC(=O)N(C)c1cc(Nc2ncc(Cl)c(NCCCNC(=O)c3ccc(C(F)(F)F)cc3)n2)ccc1F` [Example 22, N-(3-(5-chloro-2-(4-fluoro-3-(N-methylacrylamido)phenylamino)pyrimidinyl-4-amino)propyl)-4-trifluoromethylbenzamide], in data set [1], the “swelling degree induced by arthritis in the rats, compared to the solvent group” value is on record as “certain inhibitory effect”; the “Inhibitory rate for arthritis score %” value was found to be 25.5%; the “Inhibitory rate for paw volume %” value came out at 24.6%; the “Inhibitory rate for toe thickness %” value is given as 13.9%. Also, in data set [1], the “Body weight growth rate %” value came to 102.0% and the “toxicity to the rats judged from body weight” value is reported as “no significant toxicity”. This molecule also had a half-maximal inhibitory concentration (IC50) on TYK2 of over 10 µM.
